Assay results: patent publication US11827624B2, “Covalent immune recruiter compounds for immune cell recognition and associated uses” (McMaster University, priority 2020, dated 2023)

Tests used:
PSMA+LNCaP cells = test: Flow cytometry ADCP assay with mmAb on LNCaP cells; format: cell-based, human
Description: ADCP flow cytometry experiments were run on a BD LSRII Flow Cytometer. The human IgG isotype control used was purchased from Jackson ImmunoResearch (009-000-003). The human IgG1 monoclonal anti-DNP antibody (mAb) was purchased from acrobiosystems (DNP-M2). PSMA expression was confirmed with an anti-PSMA antibody Alexa 647 conjugate (Novus Biologicals, Catalog #FAB4234R). For PSMA competition controls, PMPA was purchased from Sigma (SML1612). Hek-293T (PSMA+/−) cell lines were generously given by Dr. Cyril Barinka (Institute of Biotechnology CAS, Czech Republic). U937 cells were generously given by Dr. John Valliant (McMaster University, Canada). LNCaP cells were generously given by Dr. Karen Mossman (McMaster University, Canada). IFN-γ was purchased from Fischer Scientific (PHC4031). Ultra low IgG FBS was purchased from Fischer Scientific (A3381901). RPMI-1640 was purchased as a powder from Fischer Scientific (31800089) and resuspended. DMEM was purchased as a powder from Fischer Scientific (12800082) and resuspended. […]
For preparation of effector monocytes, 24 hours prior to inducing phagocytosis U937 monocytes were seeded at 500,000 cells/mL and activated with IFN-γ ([…]). After incubation, these cells were then counted and washed twice with serum free assay media (neat RPMI). […] These cells were then counted and washed twice with serum free assay media (neat RPMI). […]

anti-DNP IgG = test: Modified octet solution labelling kinetics assay with PSMA coated probes; format: binding, rabbit
Protocol: To determine the kinetics of CIR 3 covalent labelling of anti-DNP IgG, a modified octet protocol was developed to accommodate the weaker binding affinity of glutamate urea on CIR 3 for biotinylated PSMA, which was loaded onto streptavidin coated octet probes in these experiments. First, streptavidin probes from ForteBio were placed in wells each containing 250 μl solutions composed of 100 nM biotinylated PSMA in kinetics Buffer (1×) spiked with 1% (v/v) DMSO for 20 minutes in an Octet Red96 instrument. The RPM was 1000, the temperature was held at 30° C., and the acquisition rate was 5 Hz. Following washing and baseline steps described above, the probes were then placed in a solution containing 200 nM CIR 3+100 nM anti-DNP IgG (Ab) that already had been allowed to react for varying amounts of time away from the octet instrument to form CIR 3-Ab, followed by quenching with 1 mM DNP-Glycine competitor to disrupt non covalent complex [CIR 3:Ab]. The association of CIR 3-Ab (already formed in solution) with PSMA coated probe was monitored, and the initial rates and final signal plateau measured as a function of the concentration of CIR 3-Ab formed with incubation time away from the octet instrument in solution. […]

## O=C(O)CC[C@H](NC(=O)N[C@@H](CCCCNC(=O)NCCOCCOCCOCCOCCOCCOCCOCCOC(=O)n1cnc(CCNC(=O)CNc2ccc([N+](=O)[O-])cc2[N+](=O)[O-])c1)C(=O)O)C(=O)O [CIR 3]
PSMA+LNCaP cells
  ADCP on LNCaP target cells: significant functional advantage compared to non-covalent recruitment across all antibody concentrations tested
anti-DNP IgG; 200 nM CIR 3 + 100 nM anti-DNP IgG
  pseudo intramolecular complex labelling rate constant k=kobs/0.5: 0.51 h⁻¹
anti-DNP IgG; solution labelling, PSMA coated probes
  rate constant k2: 0.00014 s⁻¹
